Measurements reported in ChEMBL document CHEMBL1201861, “Genomics of Drug Sensitity in Cancer screening data, Wellcome Trust Sanger Institute”.

How the values were obtained:
Experiment in all cases: cells
HO-1-N-1 = format: functional, cell-based, Homo sapiens; conditions: Homo sapiens, HO-1-N-1;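 note: growth inhibition of human HO-1-N-1 cells, read out with a cell viability assay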
Description: SANGER: Inhibition of human HO-1-N-1 cell growth in a cell viability assay.

DEL = format: functional, cell-based; conditions: Homo sapiens;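 note: growth inhibition of the human DEL cell line, read out with a cell viability assay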
Description: SANGER: Inhibition of human DEL cell growth in a cell viability assay.

NCI-H1693 = format: functional, cell-based, Homo sapiens; conditions: Homo sapiens, NCI-H1693;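 note: growth inhibition of the human cell line, read out with a cell viability assay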
Description: SANGER: Inhibition of human NCI-H1693 cell growth in a cell viability assay.

NCI-H446 = format: functional, cell-based; conditions: Homo sapiens;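 note: growth inhibition of NCI-H446 cells determined by a cell viability assay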
Description: SANGER: Inhibition of human NCI-H446 cell growth in a cell viability assay.

EC-GI-10 = format: functional, cell-based, Homo sapiens; conditions: Homo sapiens, EC-GI-10
Description: SANGER: Inhibition of human EC-GI-10 cell growth in a cell viability assay.

JVM-3 = format: functional, cell-based; conditions: Homo sapiens;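 note: growth inhibition of human JVM-3 cells, read out with a cell viability assay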
Description: SANGER: Inhibition of human JVM-3 cell growth in a cell viability assay.

T47D = format: functional, cell-based, Homo sapiens; conditions: Homo sapiens, T47D;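 note: growth inhibition of human T47D cells, measured with a cell viability assay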
Description: SANGER: Inhibition of human T47D cell growth in a cell viability assay.

BCPAP = format: functional, cell-based, Homo sapiens; conditions: Homo sapiens, BCPAP;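 note: growth inhibition of BCPAP cells, read out in a cell viability assay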
Description: SANGER: Inhibition of human BCPAP cell growth in a cell viability assay.

NCI-H69 = format: functional, cell-based; conditions: Homo sapiens;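 note: growth inhibition of the cell line, read out with a cell viability assay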
Description: SANGER: Inhibition of human NCI-H69 cell growth in a cell viability assay.

Hs-578T = format: functional, cell-based, Homo sapiens; conditions: Homo sapiens, Hs-578T
Description: SANGER: Inhibition of human Hs-578-T cell growth in a cell viability assay.

CP66-MEL = format: functional, cell-based, Homo sapiens; conditions: Homo sapiens, CP66-MEL;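 note: growth inhibition of CP66-MEL cells determined in a cell viability assay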
Description: SANGER: Inhibition of human CP66-MEL cell growth in a cell viability assay.

MN-60 = format: functional, cell-based; conditions: Homo sapiens;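 note: growth inhibition of the MN-60 cell line, determined with a cell viability assay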
Description: SANGER: Inhibition of human MN-60 cell growth in a cell viability assay.

MMAC-SF = format: functional, cell-based, Homo sapiens; conditions: Homo sapiens, MMAC-SF;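 note: growth inhibition of human MMAC-SF cells, read out with a cell viability assay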
Description: SANGER: Inhibition of human MMAC-SF cell growth in a cell viability assay.

ESS-1 = format: functional, cell-based, Homo sapiens; conditions: Homo sapiens, ESS-1;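 note: growth inhibition of human ESS-1 cells, read out by a cell viability assay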
Description: SANGER: Inhibition of human ESS-1 cell growth in a cell viability assay.

SW48 = format: functional, cell-based, Homo sapiens; conditions: Homo sapiens, SW48;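 note: growth inhibition of SW48 cells, read out with a cell viability assay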
Description: SANGER: Inhibition of human SW48 cell growth in a cell viability assay.

UO-31 = format: functional, cell-based; conditions: Homo sapiens;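 note: cell viability assay measuring inhibition of cell growth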
Description: SANGER: Inhibition of human U031 cell growth in a cell viability assay.

CAL-33 = format: functional, cell-based, Homo sapiens; conditions: Homo sapiens, CAL-33;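 note: growth inhibition of CAL-33 cells, read out with a cell viability assay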
Description: SANGER: Inhibition of human CAL-33 cell growth in a cell viability assay.

HC-1 = format: functional, cell-based; conditions: Homo sapiens;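 note: growth inhibition of HC-1 cells measured by a cell viability assay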
Description: SANGER: Inhibition of human HC-1 cell growth in a cell viability assay.

COLO-684 = format: functional, cell-based; conditions: Homo sapiens
Description: SANGER: Inhibition of human COLO-684 cell growth in a cell viability assay.

DU-145 = format: functional, cell-based, Homo sapiens; conditions: Homo sapiens, DU-145
Description: SANGER: Inhibition of human DU-145 cell growth in a cell viability assay.

COLO-741 = format: functional, cell-based, Homo sapiens; conditions: Homo sapiens, COLO-741
Description: SANGER: Inhibition of human COLO-741 cell growth in a cell viability assay.

MOLT-4 = format: functional, cell-based; conditions: Homo sapiens;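 note: growth inhibition of MOLT-4 cells, determined with a cell viability readout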
Description: SANGER: Inhibition of human MOLT-4 cell growth in a cell viability assay.

RO82-W-1 = format: functional, cell-based, Homo sapiens; conditions: Homo sapiens, RO82-W-1;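 note: growth inhibition of human RO82-W-1 cells, measured with a cell viability assay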
Description: SANGER: Inhibition of human RO82-W-1 cell growth in a cell viability assay.

NH-12 = format: functional, cell-based, Homo sapiens; conditions: Homo sapiens, NH-12;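 note: growth inhibition of NH-12 cells, read out with a cell viability assay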
Description: SANGER: Inhibition of human NH-12 cell growth in a cell viability assay.

OCI-AML2 = format: functional, cell-based; conditions: Homo sapiens;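 note: growth inhibition of OCI-AML2 cells, read out with a cell viability assay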
Description: SANGER: Inhibition of human OCI-AML2 cell growth in a cell viability assay.

NCI-H1299 = format: functional, cell-based, Homo sapiens; conditions: Homo sapiens, NCI-H1299;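 note: growth inhibition of human NCI-H1299 cells, read out by a cell viability assay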
Description: SANGER: Inhibition of human NCI-H1299 cell growth in a cell viability assay.

UMUC3 = format: functional, cell-based, Homo sapiens; conditions: Homo sapiens, UMUC3;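 note: growth inhibition of human UM-UC-3 cells, read out with a cell viability assay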
Description: SANGER: Inhibition of human UM-UC-3 cell growth in a cell viability assay.

SK-LU-1 = format: functional, cell-based, Homo sapiens; conditions: Homo sapiens, SK-LU-1;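 note: cell viability assay measuring growth inhibition of human SK-LU-1 cells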
Description: SANGER: Inhibition of human SK-LU-1 cell growth in a cell viability assay.

HD-MY-Z = format: functional, cell-based, Homo sapiens; conditions: Homo sapiens, HD-MY-Z;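 note: growth inhibition of HD-MY-Z cells, read out with a cell viability assay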
Description: SANGER: Inhibition of human HD-MY-Z cell growth in a cell viability assay.

HCE-T = format: functional, cell-based, Homo sapiens; conditions: Homo sapiens, HCE-T;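 note: cell viability assay read-out, reporting inhibition of HCE-T cell growth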
Description: SANGER: Inhibition of human HCE-T cell growth in a cell viability assay.

ACN = format: functional, cell-based, Homo sapiens; conditions: Homo sapiens, ACN;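 note: growth inhibition of the human ACN cell line, read out via cell viability testing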
Description: SANGER: Inhibition of human ACN cell growth in a cell viability assay.

NB12 = format: functional, cell-based, Homo sapiens; conditions: Homo sapiens, NB12;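 note: growth inhibition of human NB12 cells, read out by a cell viability assay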
Description: SANGER: Inhibition of human NB12 cell growth in a cell viability assay.

OE19 = format: functional, cell-based, Homo sapiens; conditions: Homo sapiens, OE19;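 note: growth inhibition of OE19 cells, measured through a cell viability read-out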
Description: SANGER: Inhibition of human OE19 cell growth in a cell viability assay.

SHP77 = format: functional, cell-based, Homo sapiens, SHP-77; conditions: Homo sapiens, SHP77;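 note: growth inhibition of human SHP-77 cells measured by a cell viability assay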
Description: SANGER: Inhibition of human SHP-77 cell growth in a cell viability assay.

NCI-H727 = format: functional, cell-based, Homo sapiens; conditions: Homo sapiens, NCI-H727;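 note: growth inhibition of human NCI-H727 cells, read out with a cell viability assay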
Description: SANGER: Inhibition of human NCI-H727 cell growth in a cell viability assay.

KP-N-YS = format: functional, cell-based; conditions: Homo sapiens;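 note: cell viability assay measuring inhibition of cell line growth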
Description: SANGER: Inhibition of human KP-N-YS cell growth in a cell viability assay.

BPH-1 = format: functional, cell-based, Homo sapiens; conditions: Homo sapiens, BPH-1;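 note: cell viability assay measuring growth inhibition of human BPH-1 cells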
Description: SANGER: Inhibition of human BPH-1 cell growth in a cell viability assay.

DOK = format: functional, cell-based, Homo sapiens; conditions: Homo sapiens, DOK;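 note: cell viability assay read-out, values reflect inhibition of cell growth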
Description: SANGER: Inhibition of human DOK cell growth in a cell viability assay.

EKVX = format: functional, cell-based, Homo sapiens; conditions: Homo sapiens, EKVX;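 note: growth inhibition of human EKVX cells, read out with a cell viability assay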
Description: SANGER: Inhibition of human EKVX cell growth in a cell viability assay.

697 = format: functional, cell-based; conditions: Homo sapiens
Description: SANGER: Inhibition of human 697 cell growth in a cell viability assay.

A204 = format: functional, cell-based, Homo sapiens; conditions: Homo sapiens, A204;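 note: growth inhibition of human A204 cells, read out with a cell viability assay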
Description: SANGER: Inhibition of human A204 cell growth in a cell viability assay.

SW872 = format: functional, cell-based, Homo sapiens; conditions: Homo sapiens, SW872;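 note: growth inhibition of SW872 cells, read out by a viability assay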
Description: SANGER: Inhibition of human SW872 cell growth in a cell viability assay.

MS-1 = format: functional, cell-based; conditions: Homo sapiens;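 note: growth inhibition of MS-1 cells, read out by cell viability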
Description: SANGER: Inhibition of human MS-1 cell growth in a cell viability assay.

MEL-HO = format: functional, cell-based, Homo sapiens; conditions: Homo sapiens, MEL-HO
Description: SANGER: Inhibition of human MEL-HO cell growth in a cell viability assay.

GI-1 = format: functional, cell-based, Homo sapiens; conditions: Homo sapiens, GI-1
Description: SANGER: Inhibition of human GI-1 cell growth in a cell viability assay.

D-392MG = format: functional, cell-based, Homo sapiens; conditions: Homo sapiens, D-392MG
Mo = format: functional, cell-based; conditions: Homo sapiens
Description: SANGER: Inhibition of human Mo-T cell growth in a cell viability assay.

HCC38 = format: functional, cell-based, Homo sapiens; conditions: Homo sapiens, HCC38;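 note: cell viability assay on the human HCC38 cell line, with IC50 marking the concentration that inhibits cell growth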
Description: SANGER: Inhibition of human HCC38 cell growth in a cell viability assay.

CAL-62 = format: functional, cell-based, Homo sapiens; conditions: Homo sapiens, CAL-62;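 note: growth inhibition of CAL-62 cells, read out with a cell viability assay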
Description: SANGER: Inhibition of human CAL-62 cell growth in a cell viability assay.

P30-OHK = format: functional, cell-based; conditions: Homo sapiens;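 note: growth inhibition of the P30-OHK cell line, read out with a cell viability assay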
Description: SANGER: Inhibition of human P30-OHK cell growth in a cell viability assay.

CGTH-W-1 = format: functional, cell-based, Homo sapiens; conditions: Homo sapiens, CGTH-W-1;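 note: growth inhibition of human CGTH-W-1 cells measured by cell viability assay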
Description: SANGER: Inhibition of human CGTH-W-1 cell growth in a cell viability assay.

SK-N-DZ = format: functional, cell-based, Homo sapiens; conditions: Homo sapiens, SK-N-DZ;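 note: growth inhibition of the cancer cell line, read out through a viability assay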
Description: SANGER: Inhibition of human SK-N-DZ cell growth in a cell viability assay.

D-263MG = format: functional, cell-based, Homo sapiens; conditions: Homo sapiens, D-263MG
Description: SANGER: Inhibition of human D-263MG cell growth in a cell viability assay.

`C[C@]1(O)C[C@@H](c2nc(-c3ccc4ccc(-c5ccccc5)nc4c3)c3c(N)nccn32)C1` [LINSITINIB] gave an IC50 (HO-1-N-1) greater than 2560 nM, an IC50 (DEL) greater than 2560 nM and an IC50 (NCI-H1693) greater than 2560 nM. For the same molecule, the IC50 (NCI-H446) was greater than 2560 nM, the IC50 (EC-GI-10) was greater than 2560 nM and the IC50 (JVM-3) was greater than 2560 nM. For the same molecule, the IC50 (T47D) was greater than 2560 nM, the IC50 (BCPAP) was greater than 2560 nM and the IC50 (NCI-H69) was greater than 2560 nM. It also gave an IC50 (Hs-578T) greater than 2560 nM, an IC50 (CP66-MEL) of 2290 nM and an IC50 (MN-60) greater than 2560 nM. For the same molecule, the IC50 (MMAC-SF) was greater than 2560 nM, the IC50 (ESS-1) was greater than 2560 nM and the IC50 (SW48) was greater than 2560 nM. It also gave an IC50 (UO-31) greater than 2560 nM, an IC50 (CAL-33) greater than 2560 nM and an IC50 (HC-1) greater than 2560 nM. The IC50 (COLO-684) was greater than 2560 nM, the IC50 (DU-145) was greater than 2560 nM and the IC50 (COLO-741) was greater than 2560 nM. For the same molecule, the IC50 (MOLT-4) was greater than 2560 nM, the IC50 (RO82-W-1) was greater than 2560 nM and the IC50 (NH-12) was 760 nM. It also gave an IC50 (OCI-AML2) greater than 2560 nM, an IC50 (NCI-H1299) greater than 2560 nM and an IC50 (UMUC3) greater than 2560 nM. It also gave an IC50 (SK-LU-1) greater than 2560 nM, an IC50 (HD-MY-Z) greater than 2560 nM and an IC50 (HCE-T) greater than 2560 nM. For the same molecule, the IC50 (ACN) was greater than 2560 nM, the IC50 (NB12) was greater than 2560 nM and the IC50 (OE19) was greater than 2560 nM. For the same molecule, the IC50 (SHP77) was greater than 2560 nM, the IC50 (NCI-H727) was 198 nM and the IC50 (KP-N-YS) was greater than 2560 nM. For the same molecule, the IC50 (BPH-1) was greater than 2560 nM, the IC50 (DOK) was 556 nM and the IC50 (EKVX) was 1350 nM. It also gave an IC50 697 greater than 2560 nM, an IC50 (A204) greater than 2560 nM and an IC50 (SW872) greater than 2560 nM. It also gave an IC50 (MS-1) greater than 2560 nM, an IC50 (MEL-HO) greater than 2560 nM and an IC50 (GI-1) greater than 2560 nM. It also gave an IC50 (D-392MG) greater than 2560 nM, an IC50 (Mo) greater than 2560 nM and an IC50 (HCC38) greater than 2560 nM. For the same molecule, the IC50 (CAL-62) was greater than 2560 nM, the IC50 (P30-OHK) was greater than 2560 nM and the IC50 (CGTH-W-1) was greater than 2560 nM. It also gave an IC50 (SK-N-DZ) of 237 nM and an IC50 (D-263MG) greater than 2560 nM.
Molecule `C=CCc1cccc(/C=N/NC(=O)CN2CCN(Cc3ccccc3)CC2)c1O` [PAC-1] has an IC50 (HO-1-N-1) greater than 2560 nM, an IC50 (DEL) greater than 2560 nM and an IC50 (NCI-H1693) greater than 2560 nM. The IC50 (NCI-H446) was greater than 2560 nM, the IC50 (EC-GI-10) was greater than 2560 nM and the IC50 (JVM-3) was greater than 2560 nM. It also gave an IC50 (T47D) greater than 2560 nM, an IC50 (BCPAP) greater than 2560 nM and an IC50 (NCI-H69) greater than 2560 nM. It also gave an IC50 (Hs-578T) greater than 2560 nM, an IC50 (CP66-MEL) greater than 2560 nM and an IC50 (MN-60) greater than 2560 nM. It also gave an IC50 (MMAC-SF) greater than 2560 nM, an IC50 (ESS-1) greater than 2560 nM and an IC50 (SW48) greater than 2560 nM. The IC50 (UO-31) was 1510 nM, the IC50 (CAL-33) was greater than 2560 nM and the IC50 (HC-1) was 1860 nM. It also gave an IC50 (COLO-684) greater than 2560 nM, an IC50 (DU-145) greater than 2560 nM and an IC50 (COLO-741) greater than 2560 nM. The IC50 (MOLT-4) was greater than 2560 nM, the IC50 (RO82-W-1) was greater than 2560 nM and the IC50 (NH-12) was 987 nM. It also gave an IC50 (OCI-AML2) greater than 2560 nM, an IC50 (NCI-H1299) greater than 2560 nM and an IC50 (UMUC3) greater than 2560 nM. For the same molecule, the IC50 (SK-LU-1) was greater than 2560 nM, the IC50 (HD-MY-Z) was greater than 2560 nM and the IC50 (HCE-T) was greater than 2560 nM. For the same molecule, the IC50 (ACN) was 1790 nM, the IC50 (NB12) was greater than 2560 nM and the IC50 (OE19) was greater than 2560 nM. For the same molecule, the IC50 (SHP77) was greater than 2560 nM, the IC50 (NCI-H727) was 2000 nM and the IC50 (KP-N-YS) was greater than 2560 nM. The IC50 (BPH-1) was greater than 2560 nM, the IC50 (DOK) was greater than 2560 nM and the IC50 (EKVX) was greater than 2560 nM. It also gave an IC50 697 of 910 nM, an IC50 (A204) greater than 2560 nM and an IC50 (SW872) greater than 2560 nM. It also gave an IC50 (MS-1) greater than 2560 nM, an IC50 (MEL-HO) of 1770 nM and an IC50 (GI-1) greater than 2560 nM. For the same molecule, the IC50 (D-392MG) was greater than 2560 nM, the IC50 (Mo) was greater than 2560 nM and the IC50 (HCC38) was greater than 2560 nM. It also gave an IC50 (CAL-62) greater than 2560 nM, an IC50 (P30-OHK) greater than 2560 nM and an IC50 (CGTH-W-1) greater than 2560 nM. It also gave an IC50 (SK-N-DZ) greater than 2560 nM and an IC50 (D-263MG) greater than 2560 nM.
